We go through 15 compounds from ChEMBL document CHEMBL1145735, “Synthesis and antitumor activity of novel C-8 ester derivatives of leinamycin” (Bioorg Med Chem Lett, 2003).

Experiment [1] relates to Mus musculus. The experiment is described as follows: In vivo antitumor activity against murine sarcoma 180 cells at an optimal dose of 8 mg/kg. The class given is functional.
Another experiment has as its system HeLa. The experiment is described as follows: In vitro antiproliferative activity against HeLa S3 cells. The class given is functional, cell-based. Particulars: Homo sapiens.
For experiment [2], the system named is Mus musculus. The experiment is described as follows: In vivo antitumor activity against murine sarcoma 180 cells at an optimal dose of 4 mg/kg. The class given is functional.
Experiment [3] has as its system Mus musculus. As to the kind of experiment: In vivo antitumor activity against lymphocytic leukemia P388 in mice expressed as maximal increase in life span at an optimal dose of 8 mg/kg. Format: functional.
Experiment [4] has as its system Mus musculus. The experiment is described as follows: In vivo antitumor activity against lymphocytic leukemia P388 in mice expressed as maximal increase in life span at an optimal dose of 4 mg/kg. The class given is functional.

On to `C/C1=C\[C@@H](OC(=O)COCCOCCOCCOCCO)C(=O)/C=C/C=C\c2csc(n2)[C@H](C)NC(=O)C[C@@]2(CC1)[S+]([O-])SC(=O)[C@]2(C)O` (some centres undefined), for which the T/C in the experiment on Mus musculus [1] is 0.18.
The compound `COCCOCCOCCOCC(=O)O[C@@H]1/C=C(\C)CC[C@]2(CC(=O)N[C@@H](C)c3nc(cs3)/C=C\C=C\C1=O)[S+]([O-])SC(=O)[C@]2(C)O` (some centres undefined) displayed a half-inhibitory concentration (IC50) with HeLa of 610 nM. Moreover, the T/C with Mus musculus [2] turned out to be 0.82.
In the experiment on HeLa, `C/C1=C\[C@@H](OC(=O)CNC(=O)CNC(=O)c2ccccc2)C(=O)/C=C/C=C\c2csc(n2)[C@H](C)NC(=O)C[C@@]2(CC1)[S+]([O-])SC(=O)[C@]2(C)O` (some centres undefined) registered an IC50 of 8.7 nM. The compound also showed a T/C with Mus musculus [1] of 0.42. This compound also displayed an increase in life span (ILS) at 8 mg/kg in the experiment with Mus musculus [3] of 78%.
`C/C1=C\[C@@H](OC(=O)CN(C)C(=O)OCc2ccccc2)C(=O)/C=C/C=C\c2csc(n2)[C@H](C)NC(=O)C[C@@]2(CC1)[S+]([O-])SC(=O)[C@]2(C)O` (some centres undefined) returned a half-maximal inhibitory concentration (IC50) in the experiment with HeLa of 52 nM. The T/C with Mus musculus [1] is on record as 0.74. The compound also showed an ILS at 4 mg/kg in the experiment on Mus musculus [4] of 48%.
As to `COCCOCC(=O)OCCOCCOCC(=O)O[C@@H]1/C=C(\C)CC[C@]2(CC(=O)N[C@@H](C)c3nc(cs3)/C=C\C=C\C1=O)[S+]([O-])SC(=O)[C@]2(C)O` (some centres undefined), the T/C in the experiment on Mus musculus [1] is given as 0.12.
In turn, `C/C1=C\[C@@H](OC(=O)COCCOCCO)C(=O)/C=C/C=C\c2csc(n2)[C@H](C)NC(=O)C[C@@]2(CC1)[S+]([O-])SC(=O)[C@]2(C)O` (some centres undefined) came in with an IC50 in the experiment with HeLa of 25 nM. The compound further registered a T/C in the experiment with Mus musculus [2] of 0.36.
Compound `C/C1=C\[C@@H](OC(=O)CNC(=O)CN(C)C(=O)OCc2ccccc2)C(=O)/C=C/C=C\c2csc(n2)[C@H](C)NC(=O)C[C@@]2(CC1)[S+]([O-])SC(=O)[C@]2(C)O` (some centres undefined) yielded a half-maximal inhibitory concentration (IC50) in the experiment with HeLa of 67 nM. The same compound gave a T/C with Mus musculus [1] of 0.61. The compound also registered an increase in life span (ILS) at 4 mg/kg in the experiment with Mus musculus [4] of 70%.
In the experiment on HeLa, `C/C1=C\[C@@H](OC(=O)CNC(=O)CNC(=O)OCc2ccccc2)C(=O)/C=C/C=C/c2csc(n2)[C@@H](C)N2C(=O)C[C@@]([C@@](C)(O)C(=O)SCc3oc(=O)oc3C)(CC1)[S+]2[O-]` (some centres undefined) came in with an IC50 of 15 nM. In the experiment with Mus musculus [2], the T/C is 0.61. In the experiment on Mus musculus [3], this compound came in with an ILS at 8 mg/kg of 64%.
As to `C/C1=C\[C@@H](OC(=O)[C@@H](C)NC(=O)OCc2ccccc2)C(=O)/C=C/C=C\c2csc(n2)[C@H](C)NC(=O)C[C@@]2(CC1)[S+]([O-])SC(=O)[C@]2(C)O` (some centres undefined), in the experiment with HeLa, the IC50 stood at 45 nM. The compound also came in with a T/C with Mus musculus [2] of 0.56. This compound also showed an increase in lifespan (ILS) at 4 mg/kg with Mus musculus [4] of 52%.
As for `C/C1=C\[C@@H](OC(=O)CNC(=O)[C@H](NC(=O)OCc2ccccc2)C(C)C)C(=O)/C=C/C=C\c2csc(n2)[C@H](C)NC(=O)C[C@@]2(CC1)[S+]([O-])SC(=O)[C@]2(C)O` (some centres undefined), in the experiment on HeLa, the concentration for half-maximal inhibition (IC50) was 16 nM. In addition, the T/C in the experiment on Mus musculus [1] is on record as 0.56. Moreover, the increase in life span (ILS) at 8 mg/kg in the experiment with Mus musculus [3] turned out to be 67%.
In turn, `COCCOCCOCC(=O)O[C@@H]1/C=C(\C)CC[C@]2(CC(=O)N[C@@H](C)c3nc(cs3)/C=C\C=C\C1=O)[S+]([O-])SC(=O)[C@]2(C)O` (some centres undefined) had an IC50 in the experiment with HeLa of 66 nM. Further, the T/C with Mus musculus [2] is 0.3.
Turning to `C/C1=C\[C@@H](OC(=O)CNC(=O)CCNC(=O)OC(C)(C)C)C(=O)/C=C/C=C\c2csc(n2)[C@H](C)NC(=O)C[C@@]2(CC1)[S+]([O-])SC(=O)[C@]2(C)O` (some centres undefined), inhibition in the experiment on HeLa was half-maximal at 170 nM (IC50). Besides, in the experiment on Mus musculus [1], the T/C was determined as 0.45. In addition, the ILS at 8 mg/kg in the experiment on Mus musculus [3] is 67%.
In the experiment with HeLa, `COCCOCCOCCOCCOCC(=O)O[C@@H]1/C=C(\C)CC[C@]2(CC(=O)N[C@@H](C)c3nc(cs3)/C=C\C=C\C1=O)[S+]([O-])SC(=O)[C@]2(C)O` (some centres undefined) displayed an IC50 of 240 nM. The same compound came in with a T/C in the experiment on Mus musculus [1] of 0.51.
`COCCOCCOCCOCCOCCOCCOCC(=O)O[C@@H]1/C=C(\C)CC[C@]2(CC(=O)N[C@@H](C)c3nc(cs3)/C=C\C=C\C1=O)[S+]([O-])SC(=O)[C@]2(C)O` (some centres undefined) yielded an IC50 in the experiment with HeLa of 210 nM.
With `COCCOCCOCCOCCOCCOCC(=O)O[C@@H]1/C=C(\C)CC[C@]2([C@@](C)(O)C(=O)SCc3oc(=O)oc3C)CC(=O)N([C@H](C)c3nc(cs3)/C=C/C=C/C1=O)[S+]2[O-]` (some centres undefined), the IC50 in the experiment on HeLa was 43 nM. Further, the T/C in the experiment on Mus musculus [1] is recorded as 0.58.

As usually defined, the IC50 is the concentration needed to halve the response being measured. Lower therefore signals higher potency. As usually defined, the ILS is how much longer treated animals lived than controls. A high value points to much gain in survival.
